Residues, ends and D or L forms follow the SMILES beside them. *: point of attachment. Boc = CC(C)(C)OC(=O)*

Broadly, the melting point is the temperature of the solid-liquid transition. In the case of `Cc1csc2[nH]c(=O)n(CCC(C(=O)NO)N(C)S(=O)(=O)c3ccc(Oc4ccccc4)cc3)c(=O)c12` (stereo unspecified), the melting point fell in the range of 142 to 144 °C.
For `O=c1ccoc2ccc(F)cc12` the value was 165 to 168 °C; for `CCCCOCc1cc(-n2nc(C(N)=O)nc2-c2ccccc2)ccc1Cl`, 96 to 98 °C.
The value for `Cc1c(C)c2c(c(C)c1N)CC(C)(CN1CCN(C)CC1)O2` (stereo unspecified) was 76 to 77 °C; that for `Nc1c(F)c(N2CCC(n3ccnn3)C2)c(F)c2c1c(=O)c(C(=O)O)cn2-c1ccc(F)cc1F` (stereo unspecified) was 308 to 309 °C; that for `O=c1c(CO)cnc2c3ccccc3ccn12` was 198 °C.
Regarding `CNC(=O)Nc1ccc2[nH]cc(CCN)c2c1`, the melting point lay in the range of 188 to 190 °C.
For `COc1cc(C=CC(=O)OC2C(O)C=C(C)C(=O)CC2(C)C)ccc1O` (stereo unspecified) the value was 125 to 127 °C; for `CCCc1c(OCCCCC(C)(C)c2nnn[nH]2)ccc(C(C)=O)c1O`, 112 to 115 °C; for `COC1CCN(C2CCN(c3ccc(N)cc3C#N)CC2)CC1`, 125 to 130 °C.
For `Cc1ccc(N2Cc3ccccc3P2(=O)c2ccccc2)cc1` (stereo unspecified) the value was 197 to 199 °C.
The value for `CSC[C@H](Nc1cc(F)ccc1[N+](=O)[O-])C(=O)O` was 147 °C.
For `Cc1c(C(F)(F)C(F)(F)F)oc2c(Br)cccc12`, the melting point was 65 °C.
For `O=Cc1cccc(/C=C/c2ccc3ccc(Cl)cc3n2)c1` the value was 146 to 150 °C; for `C=CC(=O)Oc1c(Br)c(Br)c(Br)c(Br)c1OC(=O)C=C`, 135 to 137 °C.
The value for `COc1ccc(-c2nn(CC3CC3)c(=O)cc2-c2ccc(OC)c(F)c2)cc1` was 135 to 136 °C; that for `COC(=O)c1cn(-c2cc(C(=O)OC)c([N+](=O)[O-])cc2C(F)(F)F)cn1` was 136 to 138 °C.
The value for `CS(=O)(=O)c1ccc(C(CC2CCCC2)C(=O)Nc2ccccn2)cc1F` (stereo unspecified) was 76 to 79 °C; that for `COc1cccc2c1CCC(O)(C(C)=O)C2` (stereo unspecified) was 63 to 63.5 °C; that for `COc1cc(OCc2ccccn2)ccc1/C=C/c1cc(/C=C/c2cc3ccccc3s2)n[nH]1` was 231 to 232 °C.
Turning to `N#Cc1cnn2c1NCC=C2c1ccc(Cl)cc1`, the melting point was 208 to 209 °C.
For `O=C(c1ccc(Oc2ccc(F)cc2)nc1)N1CCCNCC1` the value was 95.4 °C.
The value for `O=C(O)C(=O)c1c(F)cc(OCCOc2ccc3ccccc3c2)cc1F` was 157 to 158 °C; that for `OCc1cnoc1-c1ccc(F)c(Br)c1` was 134 to 135 °C.
The value for `CCS(=O)(=O)N[C@H](C(=O)NCCc1cc(Br)c(O)c(OC)c1)C(C)C` was 145 to 147 °C; that for `O=C1C2=NCC3(CCCC3)CN2c2ccc(S(=O)(=O)N3CCCC3CN3CCOCC3)cc21` (stereo unspecified) was 163 to 164 °C; that for `COC(=O)c1ccc(C(=O)NS(=O)(=O)c2ccc(CCNC(=O)c3cc(Cl)ccc3OC)cc2)cn1` was 233 °C.
Consider `COc1cc2ncnc(N3CCNCC3)c2cc1OC`, for which the melting point lay in the range of 178 to 179 °C.
For `CC(C#Cc1ccc(C(=O)O)c(O)c1)c1ccc2c(c1)C(C)(C)CCC2(C)C` (stereo unspecified) the value was 191 to 192 °C.
For `CC#CCOc1ccc(S(=O)(=O)N(C)C(C(=O)NO)c2ccc(OCCCNS(C)(=O)=O)cc2)cc1` (stereo unspecified) the value was 65 to 70 °C; for `Cc1oc(-c2ccccc2)nc1COc1ccc(CON=C(CCCC(C)(C)C(=O)O)c2ccccc2)cc1`, 111 to 112 °C.
For `COc1cnc(OC)n2nc(NS(=O)(=O)c3c(F)cccc3C(F)(F)F)nc12` the value was 201 to 203 °C; for `COc1ccc(COc2ccc(C(=O)N3CCc4cc(/C=C/CN(C)C)ccc43)cc2)cc1`, 164 to 166 °C; for `O=C(O)c1ccc(-c2ccc3nnn(Cc4ccc5ncccc5c4)c3n2)cc1`, 245 to 247 °C.
As to `CON=Cc1ccc2c(c1CN1CCN(C)CC1)OCO2`, the melting point is 100 to 102 °C.
For `CC(=O)NC(C)(C)c1ccc(-c2nc(Nc3ccc(F)cc3)ncc2C#N)cc1` the value was 212 to 216 °C; for `CCOC(=O)C1=Cc2cc(Cl)ccc2NC1C(F)(F)F` (stereo unspecified), 133 to 134 °C; for `O=C1c2cc(C(=O)N3CCCCC3)ccc2-c2ccc(C(=O)N3CCCCC3)cc21`, 94.5 to 95.5 °C.
The value for `c1ccc(-c2ccc3nc(C4(c5ccc6[nH]nnc6c5)N=c5ccccc5=N4)[nH]c3c2)cc1` was more than 280 °C; that for `CNc1nc(N)nc2c1ncn2C1C=CC(CO)C1` (stereo unspecified) was 221 to 223 °C.
For `COC(=O)c1ccccc1OCCOc1cccc2oc(-c3ccccc3)cc(=O)c12` the value was 160 to 161 °C; for `CCCn1c(C)nn(-c2ccc([N+](=O)[O-])cc2)c1=O`, 125 °C.
`C=CCOc1ccc2ccc(O)cc2c1` returned a melting point of 78 to 80 °C.
The value for `CC(C)[C@H](NC(=O)c1ccccc1)C(=O)NCC(=O)N[C@@H](CCCNC(=N)N)C(=O)Nc1ccc2ncccc2c1` was 167 to 169 °C; that for `O=C1NCCc2[nH]c3c(F)cccc3c21` was 255 to 257 °C.
The value for `CCONC(=O)COc1cccc2c1c(C(=O)C(N)=O)c(CC)n2Cc1ccccc1` was 176 to 178 °C; that for `CCOC(=O)c1nc(NCC(c2ccccc2)c2ccccc2)c2nc[nH]c2n1` was more than 200 °C.
The value for `Cc1cc(C)nc(-n2c(C(=O)Nc3ccc4c(c3)nc(C)n4C)cc3cc(F)ccc32)c1` was 130 to 140 °C; that for `COc1ccc(Cl)cc1N1CCN(CCCNC(=O)c2cccc3c(=O)c(C)c(C(=O)N(C)C)oc23)CC1` was 151 to 153 °C; that for `C[Si](Cn1ncnc1I)(c1ccc(F)cc1)c1ccc(F)cc1` was 102 to 104 °C.
Take `O=C(O)CC(Sc1cccs1)C(=O)O` (stereo unspecified): the melting point lay within 136 to 138 °C.
For `COc1cccc(C2=Nc3ccc(N4CCOCC4)cc3C(=O)C2)c1OC` the value was 235 to 236 °C; for `CCOC(=O)CC(NC(=O)C(C)C)C(=O)c1ccco1` (stereo unspecified), 65 to 67 °C; for `O=S(=O)(Nc1cccnc1Nc1ccccc1)c1ccc(Cl)cc1`, 186 to 188 °C.
The value for `Cc1c(C(=O)NCc2ccccc2)nc(-n2ccc(OCc3ccccc3)cc2=O)n1C` was 190 to 191 °C; that for `CC(=O)NCC1CN(c2ccc(N3CCN(C(=O)COC(=O)CCN(C)C)CC3)c(F)c2)C(=O)O1` (stereo unspecified) was 136 to 137 °C; that for `O=C1CCCc2c1ccc(O)c2Br` was 183 to 186 °C.
With `COc1cc2c(cc1OC)C(Cc1cc(I)c(NC(C)=O)c(I)c1)N(C(=O)C(F)(F)F)CC2` (stereo unspecified), the melting point lay in the range of 218 to 219 °C.
The value for `O=C1N(Cc2ccc(C(F)(F)F)o2)c2ccc(F)cc2C12COc1cc3c(cc12)OCO3` (stereo unspecified) was 139 to 141 °C.
For `COc1ccc(C(=O)c2c(N)sc3c2CN(C(=O)OCc2ccccc2)C3)cc1OC` the value was 195 to 196 °C; for `Cc1ccccc1-c1cn(C)cc(-c2cccc(Cl)c2)c1=O`, 171 to 173 °C; for `CN1CC(CCCl)Oc2ccc(Br)cc2C1=S` (stereo unspecified), 118 to 120 °C.
For `COC(=O)c1c(C(=O)OC)c(-c2ccc(OC)cc2)n2c1Cc1cc(OC)ccc1-2` the value was 240 to 242 °C; for `COc1c(CN2CCC(=O)C(C(c3ccccc3)c3ccccc3)C2)cc(C(C)(C)C)cc1C(C)(C)C` (stereo unspecified), 136 to 138 °C; for `COc1nc(C)cnc1NS(=O)(=O)c1ccccc1-c1ccc(CC(C)(C)C(=O)O)cc1`, 202 to 204 °C.
Turning to `CN1CCC(Sc2cc3c(cc2Cl)[nH]c(=O)n3C)CC1`, the melting point lay in the range of 210 to 212 °C.
`CC(C)n1c(CCC2C[C@@H](O)CC(=O)O2)c(-c2ccc(F)cc2)c(-c2ccccc2)c1C(=O)Nc1ccc(F)cc1` (stereo partly specified) yielded a melting point of 98 to 99 °C.
For `CCCCCCCCCCCCCCCCCCOc1cc(C(=O)O)cc([N+](=O)[O-])c1` the value was 101 to 103 °C.
The value for `C=Cc1cc(C)cc(C)c1C1=C(O)C2(CCN(OC)CC2)N(OC2CCCO2)C1=O` (stereo unspecified) was 132 to 135 °C.
For `COc1cc(OC)nc(NC(=O)NS(=O)(=O)c2nccn2-c2nn(C)cc2Cl)n1`, the melting point is 164 to 165 °C.
For `O=C(O)c1ccccc1SC1CCOC1=O` (stereo unspecified) the value was 180 to 182 °C.
In turn, `COC(=O)c1cc2c3cccc(Cl)c3n(C)c2s1` showed a melting point of 166 to 168 °C.
The value for `COc1cccc(C(N)c2sccc2S(=O)(=O)Nc2onc(C)c2Br)c1` (stereo unspecified) was 70 to 73 °C.
The value for `O=C1c2ccccc2CN1C1CCNCC1` was 144 to 146 °C.
The value for `NC1Cc2ccccc2N(C(=O)c2ccc(NC(=O)c3cc(Cl)cc(Cl)c3)cc2)C1` (stereo unspecified) was 207 to 210 °C.
`CC(=O)NC[C@H]1CN(c2ccc(-c3nsc(C(N)=O)n3)c(F)c2)C(=O)O1` gave a melting point of 238 to 240 °C.
For `COC(=O)c1cccc(-c2c(C)c(C(=O)c3ccc4nc(C)[nH]c(=O)c4c3)n3ccccc23)c1` the value was 232 °C.
The value for `Cn1c(C(F)(F)F)cc(=O)n(-c2c(F)cc(Cl)c3[nH]c(=O)oc23)c1=O` was 67 to 71 °C; that for `CC1(NC(=O)C(F)(F)F)CN(c2cc3c(cc2F)c(=O)c(C(=O)O)cn3-c2ccc(F)cc2)C1` was 146 to 151 °C; that for `COc1ccc(Sc2ccc([N+](=O)[O-])cc2[N+](=O)[O-])c(N)c1` was 169 to 172 °C.
For `CCOC(=O)C1(CC(=O)O)N=C(c2ccc(Cl)cc2)c2c(sc(C)c2C)-n2c(C)nnc21` (stereo unspecified) the value was 198 to 202 °C.
Turning to `COC(=O)CNC(=O)CNC(=O)CNC(=O)OC(C)(C)C` (Boc-Gly-Gly-Gly-OMe), the melting point lay within 122 to 128 °C.
The compound `CC(C)(C)[C@@H]1OC(=O)[C@@H]2[C@H]1C2(C)C` gave a melting point of 113 °C.
For `CNC(=O)c1cccc(NC(=O)CCc2ccccc2C)c1` the value was 131 °C.
The value for `CCc1csc(CCc2ccc(NC(=O)/C=C/c3cnn(C)c3-c3ccc(F)cc3)cc2)n1` was 200 to 201 °C; that for `COc1ccc(C(=O)c2c(C)n3c4c(cccc24)OCC3CN2CCOCC2)cc1` (stereo unspecified) was 182 to 189 °C.

The record behind these values is a melting point compilation (Tetko et al.; mined from patent text by program, amines drawn as free bases though some values may be those of a salt).
